From patent publication US7365082B2, “N-(substituted arylmethyl)-4-(disubstituted methyl)piperidines and piperazines” (Bayer CropScience AG, priority 2002, dated 2008)

System: tobacco budworm (Heliothis virescens [Fabricius])
Experiment: surface-treated diet test against tobacco budworm
Format: in vivo
Settings: 0.25 millimoles of candidate insecticide on the surface of the diet, second instar larvae, five-day exposure; for Percent Mortality: compared to the total number of insects infested; for Percent Growth Inhibition: inhibition of insect weight relative to untreated controls
Procedure: Candidate insecticides were evaluated for activity against the tobacco budworm (Heliothis virescens [Fabricius]) in a surface-treated diet test.
In this test one mL of molten (65-70° C.) wheat germ-based artificial diet was pipetted into each well of a four by six (24 well) multi-well plate (ID# 430345-15.5 mm dia.×17.6 mm deep; Corning Costar Corp., One Alewife Center, Cambridge, Mass. 02140). The diet was allowed to cool to ambient temperature before treatment with candidate insecticide.
For a determination of insecticidal activity, solutions of the candidate insecticides were prepared for testing using a Packard 204DT Multiprobe® Robotic System (Packard Instrument Company, 800 Research Parkway, Meriden, Conn. 06450), in which the robot first diluted a standard 50 millimolar DMSO solution of candidate insecticide with a 1:1 water/acetone solution (V/V) in a ratio of 1:7 stock solution to water/acetone. The robot subsequently pipetted 40 microliters of the so-prepared solution onto the surface of the diet in each of three wells in the 24 multi-well plate. The process was repeated with solutions of seven other candidate insecticides. Once treated, the contents of the multi-well plate were allowed to dry, leaving 0.25 millimoles of candidate insecticide on the surface of the diet, or a concentration of 0.25 millimolar. Appropriate untreated controls containing only DMSO on the diet surface were also included in this test.
For evaluations of the insecticidal activity of a candidate insecticide at varying rates of application, the test was established as described above using sub-multiples of the standard 50 millimolar DMSO solution of candidate insecticide. For example, the standard 50 millimolar solution was diluted by the robot with DMSO to give 5, 0.5, 0.05, 0.005, 0.0005 millimolar, or more dilute solutions of the candidate insecticide. In these evaluations there were six replicates of each rate of application placed on the surface of the diet in the 24 multi-well plate, for a total of four rates of application of candidate insecticide in each plate.
In each well of the test plate was placed one second instar tobacco budworm larvea, each weighing approximately five milligrams. After the larvae were placed in each well, the plate was sealed with clear polyfilm adhesive tape. The tape over each well was perforated to ensure an adequate air supply. The plates were then held in a growth chamber at 25° C. and 60% relative humidity for five days (light 14 hours/day).
After the five-day exposure period insecticidal activity for each rate of application of candidate insecticide was assessed as percent inhibition of insect weight relative to the weight of insects from untreated controls, and percent mortality when compared to the total number of insects infested.
The test compounds of formula I are identified by numbers that correspond to those in Table 1.

## CCn1nnc(-c2ccc(CN3CCC(/C(=N\NC(=O)c4ccc(OC(F)(F)F)cc4)c4ccc(OC(F)(F)F)cc4)CC3)cc2)n1 [Compound 149, N-[1-aza-2-(1-{[4-(2-ethyl(1,2,3,4-tetraazol-5-yl))phenyl]methyl}(4-piperidyl))-2-[4-(trifluoromethoxy)phenyl]vinyl][4-(trifluoromethoxy)phenyl]carboxamide]
  Percent Mortality: 100%
  Percent Growth Inhibition: 96%

## Clc1ccc(C(c2ccc(Cl)cc2)N2CCN(Cc3ccc(Oc4ncccn4)cc3)CC2)cc1 [Compound 167]
  Percent Mortality: 100%
  Percent Growth Inhibition: 100%

## FC(F)(F)c1ccc(C(c2ccc(Cl)cc2)N2CCN(Cc3ccc(Oc4ncccn4)cc3)CC2)cc1 (centres unmarked) [Compound 168]
  Percent Mortality: 100%
  Percent Growth Inhibition: 100%

## FC(F)(F)c1ccc(C(c2ccc(C(F)(F)F)cc2)N2CCN(Cc3ccc(Oc4ncccn4)cc3)CC2)cc1 [Compound 169, 2-{4-[(4-{bis[4-(trifluoromethyl)phenyl]methyl}piperazinyl)methyl]phenoxy}pyrimidine]
  Percent Growth Inhibition: 100%

## [O-][N+]1(Cc2ccc(Oc3ccccc3F)cc2)CCN(C(c2ccc(OC(F)(F)F)cc2)c2ccc(OC(F)(F)F)cc2)CC1 [Compound 172]
  Percent Mortality: 100%
  Percent Growth Inhibition: 100%

## CC(C)OC(=O)Nc1ccc(C[N+]2([O-])CCN(C(c3ccc(C(F)(F)F)cc3)c3ccc(C(F)(F)F)cc3)CC2)cc1 [Compound 174]
  Percent Mortality: 100%
  Percent Growth Inhibition: 100%

## CCn1nnc(-c2ccc(C[N+]3([O-])CCN(C(c4ccc(C(F)(F)F)cc4)c4ccc(C(F)(F)F)cc4)CC3)cc2)n1 [Compound 175]
  Percent Mortality: 100%
  Percent Growth Inhibition: 100%

## [O-][N+]1(Cc2ccc(Oc3ccccn3)cc2)CCN(C(c2ccc(Cl)cc2)c2ccc(C(F)(F)F)cc2)CC1 (centres unmarked) [Compound 176]
  Percent Mortality: 100%
  Percent Growth Inhibition: 100%

## [O-][N+]1(Cc2ccc(Oc3ccccn3)cc2)CCN(C(c2ccc(C(F)(F)F)cc2)c2ccc(C(F)(F)F)cc2)CC1 [Compound 177]
  Percent Mortality: 100%
  Percent Growth Inhibition: 100%

## [O-][N+]1(Cc2ccc(Oc3ncccn3)cc2)CCN(C(c2ccc(Cl)cc2)c2ccc(Cl)cc2)CC1 [Compound 178]
  Percent Mortality: 0%
  Percent Growth Inhibition: 100%

## [O-][N+]1(Cc2ccc(Oc3ncccn3)cc2)CCN(C(c2ccc(Cl)cc2)c2ccc(C(F)(F)F)cc2)CC1 (centres unmarked) [Compound 179]
  Percent Mortality: 100%
  Percent Growth Inhibition: 100%

## [O-][N+]1(Cc2ccc(Oc3ncccn3)cc2)CCN(C(c2ccc(C(F)(F)F)cc2)c2ccc(C(F)(F)F)cc2)CC1 [Compound 180, 2-{4-[(4-{bis[4-(trifluoromethyl)phenyl]methyl}1-oxypiperazinyl)methyl]phenoxy}pyrimidine]
  Percent Mortality: 100%
  Percent Growth Inhibition: 100%
